Assay results as given in PubChem BioAssay AID342 (DTP/NCI, 2004).
Several values for one entry are separate records, joined by “and”; a condition that tells them apart may be missing. Equal values may be shown once. Numbered stars: 1 amine (or outer) side, 2 acyl side, 3 side chain; on linkers, the order of the positions; unused ones are H or OH. Bridge positions count the residues as written; N and C are the ends. Square brackets hold non-standard residues; d marks the D form. Peptide text beside a SMILES is read from it. * marks the point of attachment. X1 = CC(C)C(C)C(C(=O)[*:2])N(C)[*:1]; Picolinoyl(3-OH) = O=C(c1ncccc1O)*; NMePhg = CN[CH](C(=O)O)c1ccccc1; Hyp = O=C(O)[CH]1C[CH](O)CN1; Sar = CNCC(=O)O

System: Swiss mice, Sarcoma 180 sc, mean tumor weight T/C
Assay: NCI In Vivo Anticancer Drug Screen. Data for tumor model Sarcoma 180 (subcutaneous) in Swiss mice
Conditions: endpoint: mean tumor weight, higher = larger tumour
In short: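 Antitumor activity is assessed in mice with transplantable tumors. Treated (T) and vehicle control (C) groups are compared on survival or tumor size.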

[1] = dose: 0.5 mg/kg/injection, schedule: Q01DX007 (ip), vehicle: saline
[2] = dose: 1.0 mg/kg/injection, schedule: Q01DX007 (ip), vehicle: saline
[3] = dose: 75.0 mg/kg/injection, schedule: Q01DX007 (ip), vehicle: carboxymethylcellulose (CMC)
[4] = dose: 150.0 mg/kg/injection, schedule: Q01DX007 (ip), vehicle: carboxymethylcellulose (CMC)
[5] = dose: 100.0 mg/kg/injection, schedule: Q01DX007 (ip), vehicle: carboxymethylcellulose (CMC)

With `CCCCOP(=S)(N1CC1)N1CC1` the T/C (dose: 0.25 mg/kg/injection, schedule: Q01DX007 (ip), vehicle: saline) was 97 % of control, the T/C [1] was 73 % of control and the T/C (dose: 0.75 mg/kg/injection, schedule: Q01DX007 (ip), vehicle: other) was 124 % of control. The T/C (dose: 0.75 mg/kg/injection, schedule: Q01DX007 (ip), vehicle: saline) was 86 % of control, the T/C [2] was 70 % of control and the T/C (dose: 1.5 mg/kg/injection, schedule: Q01DX007 (ip), vehicle: other) was 79 % of control. The T/C (dose: 1.5 mg/kg/injection, schedule: Q01DX007 (ip), vehicle: saline) was 70 % of control, the T/C (dose: 1.8 mg/kg/injection, schedule: Q01DX007 (ip), vehicle: saline) was 33 % of control and the T/C (dose: 2.8 mg/kg/injection, schedule: Q01DX007 (ip), vehicle: saline) was 9 % of control. For the same compound, the T/C (dose: 3.0 mg/kg/injection, schedule: Q01DX007 (ip), vehicle: other) was 87 % of control, the T/C (dose: 3.0 mg/kg/injection, schedule: Q01DX007 (ip), vehicle: saline) was 57 % of control and the T/C (dose: 4.3 mg/kg/injection, schedule: Q01DX007 (ip), vehicle: saline) was 11 % of control. The T/C (dose: 6.0 mg/kg/injection, schedule: Q01DX007 (ip), vehicle: other) was 91 % of control, the T/C (dose: 6.0 mg/kg/injection, schedule: Q01DX007 (ip), vehicle: saline) was 31 % of control and the T/C (dose: 6.6 mg/kg/injection, schedule: Q01DX007 (ip), vehicle: saline) was 3 % of control. The T/C (dose: 7.5 mg/kg/injection, schedule: Q#A X014 (ip), vehicle: saline) was 28 % of control, the T/C (dose: 10.0 mg/kg/injection, schedule: Q01DX007 (ip), vehicle: other) was 103 % of control and the T/C (dose: 10.0 mg/kg/injection, schedule: Q01DX007 (ip), vehicle: saline) was 17 % of control. The T/C (dose: 10.0 mg/kg/injection, schedule: Q## X000 (ip), vehicle: saline) was 17 % of control, the T/C (dose: 15.0 mg/kg/injection, schedule: Q## X000 (ip), vehicle: saline) was 2 % of control and the T/C (dose: 22.5 mg/kg/injection, schedule: Q## X000 (ip), vehicle: saline) was 3 % of control.
`O=C(CCBr)N1CCCN(C(=O)CCBr)CC1` was tested, and the T/C (dose: 147.0 mg/kg/injection, schedule: Q01DX007 (ip), vehicle: carboxymethylcellulose (CMC)) was 49 % of control and the T/C (dose: 223.0 mg/kg/injection, schedule: Q01DX007 (ip), vehicle: carboxymethylcellulose (CMC)) was 46 % of control.
With `COC(=O)C1C2CC3c4[nH]c5cc(OC)ccc5c4CCN3CC2CC(OC(=O)c2cc(OC)c(OC)c(OC)c2)C1OC` (stereo not drawn) the T/C [1] was 155 % of control, the T/C [2] was 85 % of control and the T/C (dose: 2.0 mg/kg/injection, schedule: Q01DX007 (ip), vehicle: saline) was 62 % of control. The T/C (dose: 4.0 mg/kg/injection, schedule: Q01DX007 (ip), vehicle: saline) was 83 % of control and 85 % of control, the T/C (dose: 8.0 mg/kg/injection, schedule: Q01DX007 (ip), vehicle: saline) was 115 % of control and the T/C (dose: 16.0 mg/kg/injection, schedule: Q01DX007 (ip), vehicle: saline) was 92 % of control. The T/C (dose: 32.0 mg/kg/injection, schedule: Q01DX007 (ip), vehicle: saline) was 90 % of control.
`CO[C@H]1C[C@H](O[C@H]2CC[C@]3(C=O)[C@H]4CC[C@]5(C)[C@@H](C6=CC(=O)OC6)CC[C@]5(O)[C@@H]4CC[C@]3(O)C2)O[C@H](C)[C@H]1O` was tested, and the T/C (dose: 2.5 mg/kg/injection, schedule: Q01DX007 (sc), vehicle: saline) was 86 % of control and the T/C (dose: 5.0 mg/kg/injection, schedule: Q01DX007 (sc), vehicle: saline) was 62 % of control.
For `CCCCN(C)N=Nc1n[nH]nc1C(N)=O`, the T/C (dose: 16.0 mg/kg/injection, schedule: Q01DX007 (ip), vehicle: carboxymethylcellulose (CMC)) was 93 % of control, the T/C (dose: 31.0 mg/kg/injection, schedule: Q01DX007 (ip), vehicle: carboxymethylcellulose (CMC)) was 85 % of control and the T/C (dose: 62.0 mg/kg/injection, schedule: Q01DX007 (ip), vehicle: carboxymethylcellulose (CMC)) was 38 % of control.
`O=c1[nH]c2cc(Cl)c(Cl)cc2o1` was tested, and the T/C (dose: 19.0 mg/kg/injection, schedule: Q01DX007 (ip), vehicle: carboxymethylcellulose (CMC)) was 83 % of control, the T/C (dose: 37.5 mg/kg/injection, schedule: Q01DX007 (ip), vehicle: carboxymethylcellulose (CMC)) was 90 % of control and the T/C [3] was 94 % of control. The T/C [4] was 81 % of control.
In the case of `O=P(N1CCCC1)(N1CC1)N1CC1`, the T/C (dose: 1.0 mg/kg/injection, schedule: Q#A X014 (ip), vehicle: saline) is reported as 50 % of control and 54 % of control, the T/C (dose: 1.3 mg/kg/injection, schedule: Q#A X014 (ip), vehicle: carboxymethylcellulose (CMC)) is reported as 76 % of control and the T/C (dose: 1.5 mg/kg/injection, schedule: Q#A X014 (ip), vehicle: saline) is reported as 10 % of control and 22 % of control. For the same compound, the T/C (dose: 2.0 mg/kg/injection, schedule: Q#A X014 (ip), vehicle: carboxymethylcellulose (CMC)) was 66 % of control, the T/C (dose: 2.0 mg/kg/injection, schedule: Q#A X014 (ip), vehicle: saline) was 15 % of control and the T/C (dose: 3.0 mg/kg/injection, schedule: Q#A X014 (ip), vehicle: carboxymethylcellulose (CMC)) was 46 % of control. The T/C (dose: 8.0 mg/kg/injection, schedule: Q01DX007 (ip), vehicle: carboxymethylcellulose (CMC)) was 23 % of control and the T/C (dose: 12.0 mg/kg/injection, schedule: Q01DX007 (ip), vehicle: carboxymethylcellulose (CMC)) was 11 % of control.
With `C=CCOc1ccc2c(c1)CC[C@@H]1[C@@H]2CC[C@]2(C)[C@@H](O)[C@H](O)C[C@@H]12` the T/C (dose: 2.5 mg/kg/injection, schedule: Q01DX007 (sc), vehicle: steriod suspending solution) was 105 % of control, the T/C (dose: 5.0 mg/kg/injection, schedule: Q01DX007 (sc), vehicle: steriod suspending solution) was 120 % of control and the T/C (dose: 10.0 mg/kg/injection, schedule: Q01DX007 (sc), vehicle: steriod suspending solution) was 82 % of control.
`CN(C)/N=N/c1nc[nH]c1C(N)=O` was tested, and the T/C (dose: 11.0 mg/kg/injection, schedule: Q01DX007 (ip), vehicle: saline) was 58 % of control, the T/C (dose: 12.5 mg/kg/injection, schedule: Q#A X014 (ip), vehicle: methylcellulose (MC)) was 68 % of control and the T/C (dose: 20.0 mg/kg/injection, schedule: Q01DX007 (ip), vehicle: carboxymethylcellulose (CMC)) was 89 % of control. The T/C (dose: 22.0 mg/kg/injection, schedule: Q01DX007 (ip), vehicle: saline) was 62 % of control, the T/C (dose: 25.0 mg/kg/injection, schedule: Q#A X014 (ip), vehicle: methylcellulose (MC)) was 43 % of control and the T/C (dose: 40.0 mg/kg/injection, schedule: Q01DX007 (ip), vehicle: carboxymethylcellulose (CMC)) was 62 % of control. For the same compound, the T/C (dose: 44.0 mg/kg/injection, schedule: Q01DX007 (ip), vehicle: carboxymethylcellulose (CMC)) was 23 % of control and 43 % of control, the T/C (dose: 50.0 mg/kg/injection, schedule: Q#A X014 (ip), vehicle: methylcellulose (MC)) was 29 % of control and the T/C (dose: 66.0 mg/kg/injection, schedule: Q01DX007 (ip), vehicle: carboxymethylcellulose (CMC)) was 28 % of control and 53 % of control. For the same compound, the T/C [5] was 28 % of control and 29 % of control, the T/C [4] was 19 % of control and 23 % of control and the T/C (dose: 160.0 mg/kg/injection, schedule: Q01DX007 (ip), vehicle: carboxymethylcellulose (CMC)) was 51 % of control and 73 % of control. For the same compound, the T/C (dose: 225.0 mg/kg/injection, schedule: Q01DX007 (ip), vehicle: carboxymethylcellulose (CMC)) was 21 % of control, the T/C (dose: 320.0 mg/kg/injection, schedule: Q01DX007 (ip), vehicle: carboxymethylcellulose (CMC)) was 39 % of control and 45 % of control and the T/C (dose: 640.0 mg/kg/injection, schedule: Q01DX007 (ip), vehicle: carboxymethylcellulose (CMC)) was 25 % of control.
In the case of `O=CNc1c(Cl)c(Cl)c2c(c1Cl)Cc1cc(Cl)ccc1-2`, the T/C (dose: 5.0 mg/kg/injection, schedule: Q01DX007 (ip), vehicle: carboxymethylcellulose (CMC)) is reported as 70 % of control, the T/C (dose: 15.0 mg/kg/injection, schedule: Q01DX007 (ip), vehicle: carboxymethylcellulose (CMC)) is reported as 60 % of control and the T/C (dose: 30.0 mg/kg/injection, schedule: Q01DX007 (ip), vehicle: carboxymethylcellulose (CMC)) is reported as 34 % of control. The T/C (dose: 49.0 mg/kg/injection, schedule: Q01DX007 (ip), vehicle: carboxymethylcellulose (CMC)) was 63 % of control, the T/C (dose: 73.0 mg/kg/injection, schedule: Q01DX007 (ip), vehicle: carboxymethylcellulose (CMC)) was 64 % of control and the T/C (dose: 110.0 mg/kg/injection, schedule: Q01DX007 (ip), vehicle: carboxymethylcellulose (CMC)) was 51 % of control. For the same compound, the T/C (dose: 165.0 mg/kg/injection, schedule: Q01DX007 (ip), vehicle: carboxymethylcellulose (CMC)) was 5 % of control.
For `CC(C)CC1NC(=O)C(NC(=O)c2ncccc2O)C(C)OC(=O)C(c2ccccc2)N(C)C(=O)C(C)NC(=O)C(C(C)C(C)C)N(C)C(=O)CN(C)C(=O)C2CC(O)CN2C1=O` (stereo not drawn) ({Picolinoyl(3-OH)}-TL[Hyp][Sar][X1]A[NMePhg]; ester 1-C; configuration not given here), the T/C (dose: 6.25 mg/kg/injection, schedule: Q01DX007 (ip), vehicle: carboxymethylcellulose (CMC)) was 85 % of control, the T/C (dose: 25.0 mg/kg/injection, schedule: Q01DX007 (ip), vehicle: carboxymethylcellulose (CMC)) was 106 % of control and the T/C (dose: 50.0 mg/kg/injection, schedule: Q01DX007 (ip), vehicle: carboxymethylcellulose (CMC)) was 114 % of control. For the same compound, the T/C [3] was 67 % of control, the T/C [5] was 100 % of control and the T/C (dose: 200.0 mg/kg/injection, schedule: Q01DX007 (ip), vehicle: carboxymethylcellulose (CMC)) was 98 % of control.
